Literature values as cited in patent publication US20110104272A1 (DEPOMED, INC., priority 2009, published 2011).

Row | SMILES | solubility in water (in words)
1 | CC(=O)Nc1ccc(O)cc1 [Acetaminophen, N-(4-hydroxyphenyl)acetamine] | poorly soluble in water
2 | CNC[C@H](O)c1cccc(O)c1 [Phenylephrine, (R)-3-[-1-hydroxy-2-(methylamino)ethyl]phenol] | highly soluble in water
